Results reported in BindingDB's records for doi:10.1021/jm0509703 (Takeda Pharmaceutical, 2006).

Assays:
[1] = Inhibition of membrane fusion between HIV1 JR-FL Env-expressing COS7 cells and MOLT4/CCR5
[2] = Inhibition of replication of R5 HIV1 Ba-L in MOLT4/CCR5 cells

SMILES	IC50 [1] [nM]	IC50 [2] [nM]
CCCCOCCOc1ccc(-c2ccc3c(c2)C=C(C(=O)Nc2ccc([S+]([O-])Cc4nncn4CCC)cc2)CCCN3CC(C)C)cc1 (stereo not given)	0.19	–
CCCCOCCOc1ccc(-c2ccc3c(c2)C=C(C(=O)Nc2ccc([S+]([O-])Cc4cncn4CCC)cc2)CCCN3Cc2cnn(C)c2)cc1 (stereo not given)	0.21	2.3
CCCCOCCOc1ccc(-c2ccc3c(c2)C=C(C(=O)Nc2ccc([S+]([O-])Cc4cncn4CCC)cc2)CCN3CC(C)C)cc1 (stereo not given) [7-(4-(2-butoxyethoxy)phenyl)-1-isobutyl-N-(4-((1-propyl-1H-imidazol-5-yl)methylsulfinyl)phenyl)-2,3-dihydro-1H-benzo[b]azepine-4-carboxamide]	1	5.3
CCCCOCCOc1ccc(-c2ccc3c(c2)C=C(C(=O)Nc2ccc([S+]([O-])Cc4cncn4CCC)cc2)CCCN3CCC)cc1 [(S)-(-)-8-{4-[2-(butoxy)ethoxy]phenyl}-1-propyl-N-(4-{[(1-propyl-1H-imidazol-5-yl)methyl]sulfinyl}phenyl)-1,2,3,4-tetrahydro-1-benzazocine-5-carboxamide]	0.24	1.4
CCCCOCCOc1ccc(-c2ccc3c(c2)C=C(C(=O)Nc2ccc([S+]([O-])Cc4nncn4CCC)cc2)CCCN3CCC)cc1 [(S)-(-)-8-{4-[2-(butoxy)ethoxy]phenyl}-1-propyl-N-(4-{[(4-propyl-4H-1,2,4-triazol-3-yl)methyl]sulfinyl}phenyl)-1,2,3,4-tetrahydro-1-benzazocine-5-carboxamide]	0.95	–
CCCCOCCOc1ccc(-c2ccc3c(c2)C=C(C(=O)Nc2ccc([S+]([O-])Cc4cncn4CCC)cc2)CCCCN3CC(C)C)cc1 [(S)-(-)-9-{4-[2-(butoxy)ethoxy]phenyl}-1-isobutyl-N-(4-{[(1-propyl-1H-imidazol-5-yl)methyl]sulfinyl}phenyl)-2,3,4,5-tetrahydro-1H-1-benzazonine-6-carboxamide]	0.48	2.1
